The text below walks through data of the NIST ThermoML archive (doi:10.1016/j.tca.2010.08.002).

Each structure is given as a SMILES string. Numbers after ± are expanded uncertainties.

The series is described as follows: Molar enthalpy of transition or fusion. As to conditions: Adiabatic calorimetry.

Turning to `CCCCn1cc[n+](C)c1.O=S(=O)([O-])C(F)(F)F` [1-butyl-3-methylimidazolium trifluoromethanesulfonate], the “Molar enthalpy of transition or fusion” value is 4.644 ± 0.00956 kcal/mol (Crystal 1) and 0.00311 ± 0.000239 kcal/mol (Crystal 2).
